Results reported in EP0518769B1, “Ethanolaminebenzoate derivative, process for their preparation and pharmaceutical compositions containing them” (ADIR ET COMPAGNIE, priority 1991, dated 1992).

What was measured:
[1] = system: rats agés de 12 semaines, insulinorésistance induite par l'amyline; assay: Insulin resistance induced by intraportal amylin perfusion, with IVGTT; type: in vivo, rat; conditions: Perfusion amyline + 0,75µg/kg/min pendant 60 mn
Source text: A J₇ avant le début de l'expérimentation, les rats sont anesthésiés à la kétamine (IMALGENE 1000 - Rhône MERIEUX), et un cathéter en silastic (602-135, médical grade, DOW CORNING MIDLAND) est implanté dans la veine porte hépatique [cf. Strubbe J.H., Wolsink J.G., Schutte A.M., Balkan B., and Prins A.J.A. : Hepatic-portal and cardiac infusion of CKK-8 and glucagon induce different effects on feeding. Physiology and Behavior 46,643-646 (1989)] pour la perfusion du soluté physiologique (jour contrôle) puis du produit à tester. Ils sont alors placés individuellement dans des cages en plexiglas. • Après récupération, soit environ 10 jours plus tard, un second cathéter en silastic (602-155, médical grad, DOW CORNING MIDLAND) est introduit jusque dans l'oreillette droite par la veine jugulaire droite [cf. Steffens A.B : A Method for frequent sampling of blood and continuous infusion of fluids in the rat without disturbing the animal. Physiology and behavior 4, 833-836 (1969)]. Lors des test, les différents prélèvements sanguins et l'injection intra-cardiaque du bolus glucosé seront effectués à l'aide de ce cathéter. Pendant les deux interventions chirurgicales, les cathéters sont glissés sous la peau et extériorisés au-dessus de la tête au moyen d'une aiguille limée recourbée et bouchée par un capuchon de polyéthylène (PE) fermé à la bougie. • 0,4 ml d'une solution d'héparine à 500 U/ml (ROUSSEL UCLAF) suivie de 0,1 ml de PVP (Solution de Polyvinylpyrrolidone à 30 % - PM 25000 - MERCK) sont introduits dans les cathéters avant la fermeture par le capuchon de polyéthylène. La viscosité du PVP permet d'éviter un reflux du sang dans le cathéter. • La veille de chaque expérience, les rats sont soumis à un jeûne nocturne de 18 heures. Le jour de l'expérience, ces rats sont pesés et le bon fonctionnement des cathéters vérifié. • Afin d'éliminer le stress du branchement des cathéters sur les aiguilles extériorisées sur le dessus de la tête, 20 minutes de repos sont nécessaires avant de commencer l'expérience. • Les perfusions intraportales, réalisées à l'aide d'un cathéter en polyéthylène N° 3 durent 60 minutes; elles ont un débit constant de 2 ml/heure soit envirion 0,033 ml/minute, assuré par un perfuseur BRAUN. […]

[2] = system: Rats SDCD mâles 52 semaines; assay: Acute treatment by portal perfusion in the conscious rat, with IVGTT; type: in vivo; conditions: 0,25 µg/kg/min×60 min intraportal perfusion; vs Contrôle 57,4 ± 13,7 µU/ml
Source text: La technique de perfusion portale chez le rat vigile permet d'étudier l'effet de substances pharmacologiques sur les modifications de la tolérance au glucose adminstré par voie intraveineuse.
L'injection d'agents directement dans la circulation portale permet d'éviter les effets du transit gastrique, d'absorption et de libération d'hormone par la paroi intestinale et ainsi d'explorer : • soit un effet direct sur le tissu hépatique, • soit l'existence d'un relai foie-système nerveux central-tissu périphérique (foie, muscle ou cible endocrine).
Dans cette expérimentation, on a utilisé des rats mâles adultes SPRAGUE DAWLEY par lots de 5 à 12 rats.
Les rats utilisés, agés de 52 semaines, présentent • une diminution de la tolérance au glucose, • une augmentation de l'insulinémie basale, et • une augmentation des lipides plasmatiques.
La stabulation (de 9 à 52 semaines) de ces rats a été réalisée dans une pièce à température régulée de 21 à 22 °C et soumise à un cycle fixe de lumière (de 7 h 30 à 19 h 30) et d'obscurité (de 19 h 30 à 7 h 30). Leur alimentation a consisté en un régime d'entretien (UAR A 03); eau et nourriture ont été fournies "ad libitum", à l'exception du jeûne nocturne précédant les tests où la nourriture était retirée. […]

[3] = system: Rats SDCD mâles de 52 semaines; assay: Chronic per os treatment (14 days, twice daily) in the male SDCD rat aged 52 weeks; type: in vivo; conditions: 0,5 mg/kg×2 per os, vs Contrôle 1,1 ± 0,14 g/l
Source text: Les essais sont réalisés sur des rats qui présentent des anomalies pondérales associées à un hyperinsulisme et une hyperglycéridémie.
Il est recherché : • d'une part l'effet d'un traitement prolongé du produit de l'exemple 1 et de substances de référence sur ces anomalies, et • d'autre part, la consommation du glucose par le tissu adipeux est mesuré à l'état basal et en présence d'insuline (10⁻⁹ M).
On utilise des rats identiques à ceux de l'étude du traitement aigu, (cf. ci-dessus le paragraphe A- 2.1), à savoir des rats SDCD mâles agés de 52 semaines.
9 jours avant le début de l'expérimentation (J₋₉), sont constitués des lots de rats par randomisation stratifiée sur le poids.
5 jours avant le début de l'expérimentation (J₋₅), les rats sont conditionnés par administration d'une solution de gomme.
Le premier jour de l'expérimentation (J₁), les produits à tester sont administrés à différentes doses aux rats 2 fois par jour. Plus précisémment, les produits sont administrés en suspension dans la gomme entre 9 et 10 heures et 16-17 heures pendant 14 jours. Une pesée quotidienne des animaux traités est effectuée.
Le 15ème jour, les rats (à jeun depuis 18 heures) sont sacrifiés par décapitation. Le sang est recueilli directement dans une cupule. Un aliquote (50 µl) est transféré dans 500 µl d'acétate d'uranyl pour dosage de la glycémie. […]

LDL [4] = assay: LDL oxidation in vitro by monocytes; type: cell-based; conditions: à 10⁻⁴ M
Source text: (§1) Une étude comparative entre le produit de l'exemple 1 et les substances de référence (Benfluorex, Diméthylbiguanide) sur l'oxydation des LDL in vitro a été réalisée.

LDL [5] = assay: LDL oxidation in vitro by copper; type: biochemical; conditions: à 10⁻⁴ M
Source text: as §1

Compound | Tolérance au glucose K.10^-2 ([1]; Controle 3,54±0,24, amyline alone 1,71±0,27) | Insulinémie basale ([1]; Controle 5,93±0,48, amyline alone 6,87±0,77) | Insulinémie 24 min après glucose ([1]; Controle 8,86±0,77, amyline alone 15,28±1,90) | Insulinémie au pic ([1]; Controle 24,80±1,86, amyline alone 23,54±1,7) | Insulinémie au pic Variation % [2] | Cholestérol variation % [3] | Oxydation des LDL in vitro par les monocytes (LDL [4]) | Oxydation des LDL in vitro par le cuivre (LDL [5])
COC(CNCCOC(=O)c1ccc(CCNC(=O)CC2c3ccccc3-c3ccccc32)cc1)c1cccc(C(F)(F)F)c1 (single isomer, unassigned) [Exemple 1, Isomère lévogyre du chlorhydratede para-[2-(α-fluorén-9-ylacétylamino) éthyl] benzoatede 2-[(β-méthoxy β-métatrifluorométhylphényl) éthylamino] éthyle] | 3,79±0,38 | 8,26±1,15 µU/ml | 15±1,86 µU/ml | 23,60±2,17 µU/ml | 0% | 0% |  | 
CC(Cc1cccc(C(F)(F)F)c1)NCCOC(=O)c1ccccc1 (stereo not drawn) [Benfluorex, 1-(3-trifluorométhylphényl)-2-(β-benzoyloxyéthyl)aminopropane] |  |  |  |  |  |  | Inactif à 10⁻⁴ M | Inactif à 10⁻⁴ M
